Some test systems named below: MDA-MB-231; SK-MEL-28; RXF 393; SF-295; K562; A498; MDA-N; NCI/ADR-RES; NCI-H23; EKVX; OVCAR-8; OVCAR-4; PC-3; CAKI-1; SK-MEL-2; NCI-H522; CCRF-CEM; HCT-15; RPMI-8226; UACC-62.
Assay in all cases: DTP human tumour cell line panel, 48 h

Each structure is given as a SMILES string.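 Interpolation was linear, between the two tested concentrations surrounding the appropriate level; five concentrations were tested over 48 hours in 96-well plates. At the GI50, growth is halved.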 Activity calls are given as the source filed them. Rule as the data show it: active = GI50 up to about 1.1 µM and inactive = higher. Bounds are passed on as bounds.

In the case of `COc1cc(O)c(C(=O)/C=C/c2ccc(O)cc2)cc1Oc1ccc(C(=O)/C=C/c2ccc(O)cc2)c(O)c1` [RHUSCHALCONE IV], the GI50 is 3.6 µM (inactive) in the test on MDA-MB-231; 1.95 µM (inactive) in the test on SK-MEL-28; 2.48 µM (inactive) with RXF 393; 3.76 µM (inactive) in the test on SF-295; 3.39 µM (inactive) with K562; 2.05 µM (inactive) in the test on A498. In addition, the GI50 with MDA-N is 3.21 µM (inactive); with NCI/ADR-RES, 2.91 µM (inactive); in the test on NCI-H23 it was 2.67 µM (inactive); with EKVX, 2.27 µM (inactive); in the test on OVCAR-8, 2.59 µM (inactive); with OVCAR-4 it was 2.22 µM (inactive). Also, the GI50 is 3.78 µM (inactive) in the test with PC-3; 3.5 µM (inactive) in the test with CAKI-1; 3.36 µM (inactive) in the test with SK-MEL-2; 1.94 µM (inactive) in the test with NCI-H522; 2.66 µM (inactive) in the test with CCRF-CEM; 1.79 µM in the test with HCT-15. Besides, the GI50 was 2.34 µM (inactive) in the test with RPMI-8226 and 2.33 µM (inactive) with UACC-62.

For the compound `Cc1cn(CCCCCCC2=NCCCN2)c(=O)[nH]c1=O`, the GI50 in the test on MDA-MB-231, with SK-MEL-28, in the test with RXF 393, in the test on SF-295, in the test on K562 and in the test on A498 was > 100 µM (inactive) in each case. Besides, the GI50 in the test on MDA-N, in the test on NCI/ADR-RES, in the test with NCI-H23, with EKVX, in the test on OVCAR-8 and in the test on OVCAR-4 was > 100 µM (inactive) each time. The GI50 with PC-3 is > 100 µM (inactive); with CAKI-1, > 100 µM (inactive); in the test with SK-MEL-2, > 100 µM (inactive); with NCI-H522 it was > 100 µM (inactive); in the test on CCRF-CEM, > 100 µM (inactive); with HCT-15 it was more than 100 µM. Besides, the GI50 in the test with RPMI-8226 and with UACC-62 was > 100 µM (inactive) each time.

Regarding `O=C(O)C(Cl)(c1ccccc1)c1ccccc1`, the GI50 in the test with MDA-MB-231 is > 100 µM (inactive); in the test on SK-MEL-28, > 100 µM (inactive); with RXF 393, > 100 µM (inactive); in the test on SF-295 it was > 100 µM (inactive); in the test with K562 it was 83 µM (inactive); in the test with A498 it was > 100 µM (inactive). Besides, the GI50 in the test on MDA-N, in the test with NCI/ADR-RES, with NCI-H23, with EKVX, in the test with OVCAR-8 and with OVCAR-4 was > 100 µM (inactive) throughout. Further, the GI50 was > 100 µM (inactive) with PC-3; > 100 µM (inactive) with CAKI-1; > 100 µM (inactive) in the test with SK-MEL-2; > 100 µM (inactive) with NCI-H522; > 100 µM (inactive) with CCRF-CEM; more than 100 µM with HCT-15. Further, the GI50 in the test on RPMI-8226 and in the test on UACC-62 was > 100 µM (inactive) in each case.

For the compound `O=c1c2ccccc2nc(-c2ccccc2)n1/N=C/c1ccccc1[N+](=O)[O-]`, the GI50 in the test with MDA-MB-231 was 17.7 µM (inactive); with SK-MEL-28 it was > 100 µM (inactive); in the test with RXF 393 it was 19.3 µM (inactive); with SF-295 it was 22.8 µM (inactive); in the test with K562, > 100 µM (inactive); with A498, > 75.2 µM (inactive). The GI50 was > 100 µM (inactive) in the test with MDA-N; 16.7 µM (inactive) in the test on NCI/ADR-RES; 15.3 µM (inactive) in the test with NCI-H23; > 51.1 µM (inactive) with EKVX; > 46.2 µM (inactive) with OVCAR-8; > 91.2 µM (inactive) with OVCAR-4. The GI50 in the test on PC-3 is > 100 µM (inactive); in the test with CAKI-1, > 100 µM (inactive); with SK-MEL-2, 74.5 µM (inactive); in the test with NCI-H522, > 53.2 µM (inactive); in the test with CCRF-CEM, > 100 µM (inactive); with HCT-15, more than 100 µM. Further, the GI50 is > 100 µM (inactive) in the test on RPMI-8226 and 79.6 µM (inactive) with UACC-62.

For the compound `CCOC(=O)c1ccc(C(=O)C(C(C)=O)C(=O)OC(C)(C)C)n1C` (stereo not given), the GI50 in the test on MDA-MB-231, in the test on SK-MEL-28, with RXF 393, with SF-295, in the test with K562 and in the test on A498 was > 100 µM (inactive) each time. In addition, the GI50 with MDA-N, in the test on NCI/ADR-RES, in the test with NCI-H23, in the test with EKVX, in the test on OVCAR-8 and with OVCAR-4 was > 100 µM (inactive) each time. The GI50 was > 100 µM (inactive) in the test with PC-3; > 100 µM (inactive) in the test with CAKI-1; > 100 µM (inactive) in the test on SK-MEL-2; > 100 µM (inactive) with NCI-H522; 71.3 µM (inactive) in the test with CCRF-CEM; more than 100 µM in the test with HCT-15. The GI50 with RPMI-8226 and with UACC-62 was > 100 µM (inactive) each time.

For `CCOC(=O)c1c(Nc2ccccc2)sc2cccnc12`, the GI50 with MDA-MB-231 is 6.56 µM (inactive); with SK-MEL-28 it was 20.8 µM (inactive); in the test on RXF 393, 25.7 µM (inactive); in the test with SF-295, 21.4 µM (inactive); in the test on K562 it was 8.36 µM (inactive); with A498, 3.56 µM (inactive). Also, the GI50 in the test with MDA-N is 6.73 µM (inactive); in the test with NCI/ADR-RES, 21.9 µM (inactive); with NCI-H23, 30.3 µM (inactive); in the test with EKVX, 18.5 µM (inactive); with OVCAR-8, 25.1 µM (inactive); with OVCAR-4 it was 23.3 µM (inactive). Besides, the GI50 with PC-3 was 11.1 µM (inactive); in the test with CAKI-1, 37.2 µM (inactive); with SK-MEL-2, 17.7 µM (inactive); with NCI-H522 it was 21 µM (inactive); with CCRF-CEM, 10.5 µM (inactive); with HCT-15 it was 21.7 µM. Moreover, the figures for the GI50 in the test on RPMI-8226 and with UACC-62 were 2.05 µM (inactive) and 11.9 µM (inactive), respectively.

A word on the GI50: it is the concentration giving 50% growth inhibition.

(Values after ChEMBL document CHEMBL1201862, “PubChem BioAssay data set” (2004).)
